Experimental findings from ChEMBL document CHEMBL1126434, “Anti-allergic and anti-inflammatory actions of 2-(tetrazole-5-yl)-4-hydroxy-2-methyl-2H-1,2-benzothiazine-3-carboxanilide 1,1-dioxide” (1992) are described below.

Molecules are shown by their SMILES.

Common to all, as to assay type: functional
The species entered for experiment [1] is Rattus norvegicus. Put plainly: Compound was evaluated for the inhibition of biosynthesis of prostaglandins at a concentration of 10e5 M.
For experiment [2], the species on record is Rattus norvegicus. Put plainly: Compound was evaluated for the inhibition of biosynthesis of prostaglandins at a concentration of 10e4 M.
Experiment [3] relates to Rattus norvegicus. The experiment can be described thus: Compound was assessed for ulcerogenicity in rats at a dose of 500 mg/kg.
Experiment [4] is filed under the species Rattus norvegicus. Put plainly: Compound was evaluated for the inhibition of biosynthesis of prostaglandins at a concentration of 10e3 M.
The subject of experiment [5] is Rattus norvegicus. Put plainly: Compound was assessed for ulcerogenicity in rats at a dose of 300 mg/kg.

As usually defined, the Inhibition is the percentage by which the read-out fell short of the control. Read a high Inhibition as a strong effect. With `COc1ccc(/C=C/C(=O)Nc2ccccc2C(=O)O)cc1OC` [TRANILAST], the Inhibition in the experiment filed under Rattus norvegicus [1], in the experiment listed under Rattus norvegicus [2] and in the experiment listed under Rattus norvegicus [4] was 0% each time. Moreover, the Ulcer index in the experiment with Rattus norvegicus [3] and in the experiment on Rattus norvegicus [5] was 0 throughout.

As to `CN1C(C(=O)Nc2ccccc2-c2nn[nH]n2)=C(O)c2ccccc2S1(=O)=O`, the Inhibition in the experiment listed under Rattus norvegicus [1], in the experiment listed under Rattus norvegicus [2] and in the experiment listed under Rattus norvegicus [4] was 0% in each case. Moreover, the Ulcer index in the experiment with Rattus norvegicus [3] and with Rattus norvegicus [5] was 0 each time.
